“And” between values parts separate entries of the source, which are not always exact repeats. Equal entries are not always repeated. Where two headings read alike, the source gives them in different places. Where no end group is shown, it is not given here.
What was measured:
[1] = system: binding of biotinylated CD4 to peptomer(419-436); conditions: 10 μg/200 μl peptomer coated; 1 μg/well biotinylated CD4
[2] = target: recombinant soluble gp120 (Human immunodeficiency virus type 1 group M subtype B, UniProt P05877); conditions: rabbit antibodies, dot blot assay
gp120 binding to CD4 = target: T1, gp120 binding to CD4 (Homo sapiens, UniProt P01730); experiment: ELISA: inhibition of gp120 binding to CD4 by peptomer; design: species or system HIV-1; conditions: 500 ng/well recombinant soluble gp120 coated, biotinylated CD4, peptomer prepared without lyophilization
T1 construct: recombinant soluble CD4 (Genentech); purchased Genentech
Method: C. Inhibition of gp120 binding to CD4 by peptomer(419-436). The ELISA procedure was the same as above except that 500 ng/well of recombinant soluble gp120 was used to coat each well instead of peptomer. Poly-scrambled peptomer is a peptomer that contains all the amino acids as in peptomer(419-436) in a scrambled order.

[3] = Circular dichroism spectroscopy, degree of α-helicity; assay type: physicochemical; conditions: for helix content: circular dichroism, analysis according to Provencher et al.
Text: Circular dichroism spectroscopy was used to determine the degree of α-helicity of the peptomer and the peptide from which it was derived. […] In this case, the peptide contains 8±7% helix, while the peptomer has 31±1%. This establishes that by polymerizing the peptide, the peptomer achieves a conformation that is not favored for the free peptide monomer.
Using circular dichroism spectroscopy as described in Example 5, above, the degree of α-helicity of the peptide (419-436) with and without detergent was determined.

[4] = system: antisera from HIV infected individuals; experiment: ELISA of serum samples on plates coated with peptide or peptomer; assay type: binding; conditions: for ELISA Titer of serum sample: 1 μg/well coated
Method: Standard ELISA methods were used in these experiments. Briefly, 96-well polystyrene plates were coated with 1 μg/well of peptide or peptomer. The peptide found 9/27 (33%); the peptomer found 26/27 (96%); 1/10 (10%) false positive with the peptomer.

HIV-1 (MN) = HIV-1 (MN) in vitro neutralization by sera of immunized Rhesus monkeys; assay type: cell-based; conditions: 1 mg in PBS at 0 and 3 weeks, reciprocal serum dilution giving 40% neutralization
Method: (§1) This experiment was done with Rhesus monkeys that had been primed with various attenuated poxvirus recombinant carrying HIV-1MN genes and boosted with envelope and gag proteins formulated in alum. Six monkeys were used for the studies. Two of the monkeys were immunized with peptomer(419-436) suspended in phosphate-buffered saline (PBS at pH 7.4 without adjuvant) and four were immunized with peptomer(419-436) in alum. Each animal was injected with a single 1 ml bolus containing 1 mg peptomer(419-436) in a subscapular location in order that the immunogen be administered in a lymph node-rich locus. Three weeks after the initial injection, the monkeys were injected again and the final evaluation was performed after an additional three weeks (a total of six weeks from the initial injection).
The neutralization titers are given as the reciprocal of the dilution of
serum that gives a 40% neutralization of HIV1 (MN) infection in vitro. A
negative value means neutralization was not observed at the lowest serum
dilution tested (1:25). The MN isolate was used because this was the
strain used to design the peptomer.

[5] = Solubility of the peptomer; assay type: physicochemical
Method: b) Polymerization of the peptide monomers to form peptomer (419-436) The peptide polymers were prepared by dissolving 5 mg of the N-bromoacetyl cysteine-containing peptides in 1.0 ml of deoxygenated 0.5M NaHCO3 or 0.1M NaHPO4, pH 7.0-7.5 buffer and stirring these solutions under N2 for 5-12 hours at 25° C. […] They are soluble in 10% acetic acid at less than about 1mg/ml.
The peptomer used in the experiments described in this Example was prepared without a lyophilization step.

MN isolate of HIV1 = experiment: In vitro neutralization assay with rabbit antisera; assay type: cell-based; conditions: rabbit antibodies, Freund's adjuvant, HIV-1 MN in vitro
Method: HIV-1 MN isolate was neutralized at a dilution of 1:70. Neutralization assays were carried as described in Robert-Guroff, et al. in Techniques in HIV Research Aldovini and Walker eds. pp. 179-185 (Aldrich 1990).
gp120 Reactivity was in the dot blot assay. Neutralization was with an in
vitro neutralization assay using the MN isolate of HIV1.

Rhesus monkeys = experiment: Immune response of Rhesus monkeys: ELISA titer against the peptomer; assay type: in vivo; conditions: for ELISA titer 0 weeks: before peptomer immunization
Method: as §1
Three weeks following the initial administration of the peptomer(419-436) an ELISA titer against the peptomer of 1:3,200 was detected for the monkeys immunized with peptomer in alum.

CD4 = CD4 (Homo sapiens, UniProt P01730); experiment: Binding of peptide monomer to CD4 in the presence of detergent
[6] = diagnosis Hodgkins / lymphoma (control)
[7] = diagnosis Kidney Graft (control)

For “recombinant soluble gp120: recombinant soluble HIV-1 envelope glycoprotein gp120”, the “inhibition of biotinylated CD4 binding to peptomer(419-436)” value [1] was “inhibition”.

With “Peptomer (419-436): polymer of N-bromoacetyl cysteine-containing peptide monomers KIKQIINMWQEVGKAMYA, residues 419 to 436 of HIV-1 gp120 (also: polymerized via N-bromoacetyl cysteine, site not given here)” the “gp120 Reactivity” value ([2]; Freund's adjuvant) was 0, the “gp120 Reactivity” value ([2]; Freund's adjuvant, listed as peptomer (419-436)) was “not able to recognize gp120” and the “gp120 Reactivity” value ([2]; Ribi's adjuvant) was “reacted well”. The “inhibition of gp120 binding to CD4” value (gp120 binding to CD4; listed as peptomer) was “enhanced ability to block binding”, the “inhibition of gp120 binding to CD4” value (gp120 binding to CD4; listed as peptomer(419-436)) was “inhibition” and the helix content [3] was 31±1%. The “ELISA Titer of serum sample” value [4, 6] was 0, the “ELISA Titer of serum sample” value [4, 7] was 0 and the “ELISA Titer of serum sample” value ([4]; diagnosis NORMAL (control)) was 0. The false positive ([4]; of 10 non-HIV sera) was 10%, the “HIV-1(+) serum samples found” value ([4]; of 27 HIV+/AIDS sera) was 96% and the false positive ([4]; positive of 10 non-HIV sera) was 1/10. For the same substance, the “HIV-1(+) serum samples found” value ([4]; positive of 27 HIV+/AIDS sera) was 26/27, the “HIV-1 (MN) NEUTRALIZATION 6 weeks” value (HIV-1 (MN)) was 40 and 50 and the “solubility in 10% acetic acid” value ([5]; 10% acetic acid) was “less than 1 mg/ml”. For the same substance, the “solubility in buffered saline solutions” value ([5]; buffered saline solutions) was “not soluble”, the “solubility in aqueous solutions” value ([5]; peptomer prepared without a lyophilization step) was “increased solubility” and the solubility in water ([5]; water) was “only partially soluble”. The Neutralization (MN isolate of HIV1) was “None”, the Neutralization (MN isolate of HIV1; listed as peptomer (419-436)) was “not able to recognize gp120 or to neutralize HIV-1 infection in vitro” and the “ELISA titer 0 weeks” value (Rhesus monkeys; Rhesus monkeys, PBS without adjuvant) was 0. For the same substance, the “ELISA titer 0 weeks” value (Rhesus monkeys; Rhesus monkeys, alum group) was 0, the “ELISA titer against the peptomer, three weeks after initial administration” value (Rhesus monkeys; Rhesus monkeys, peptomer in PBS) was “No titer was detected” and the “Immunogenicity in Rhesus monkeys” value (Rhesus monkeys; monkeys previously immunized with various HIV-related immunogens including gp160/120) was “immunogenic”.

With KIKQIINMWQEVGKAMYA [Peptide 419-436] the “ability of the peptide monomer to bind CD4” value (CD4) was “enhanced ability”, the “α-helix by circular dichroism” value ([3]; PBS with 0.03% Brij 35, shoulder at 220 λ) was “presence of an α-helix” and the helix content [3] was 8±7%. The “ELISA Titer of serum sample” value [4, 6] was 0, the “ELISA Titer of serum sample” value [4, 7] was 0 and the “ELISA Titer of serum sample” value ([4]; diagnosis NORMAL (control)) was 0. For the same substance, the “ELISA Titer of serum sample” value ([4]; diagnosis uveitis (control)) was 0, the “HIV-1(+) serum samples found” value ([4]; of 27 HIV+/AIDS sera) was 33% and the “HIV-1(+) serum samples found” value ([4]; positive of 27 HIV+/AIDS sera) was 9/27.

— US5750332A, “Peptomers with enhanced immunogenicity” (priority 1995, dated 1998)
